In one test the test system is H929 cells. Kind of test: In vitro cytotoxicity (MTT) on H929 multiple myeloma tumour line. The test is classed as cell-based. Particulars: Microculture Tetrazolium Assay. The protocol: The cytotoxicity studies were carried out on the H929 multiple myeloma tumour line.
The cells are distributed onto microplates and exposed to the test compounds for 48 hours.
The cell viability is then quantified by a colorimetric assay, the Microculture Tetrazolium Assay (Cancer Res., 1987, 47, 939-942).

Another test has as its target Mcl-1 protein (Homo sapiens, UniProt Q07820). Kind of test: Inhibition of Mcl-1 by the fluorescence polarisation technique. Format: binding. The following applies: fluorescence polarisation test; Fluorescein labelled ligand 1 nM, Mcl-1 protein 5 nM, ~2 hours at r.t.; read-out: IC50 (M) Mcl-1 FP. The method in brief: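 Competitive FP displacement of fluorescein-labelled peptide ligand (1 nM final) from Mcl-1 (5 nM final) in HEPES 10 mM, 150 mM NaCl, 0.05% Tween 20, pH 7.4, 5% DMSO final. Read after ~2 h at r.t.; IC50 from 11-point 4-parameter logistic fit of % mP reduction.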

Setting [1] is: Homo sapiens, NCI-H929, exposed 48 hours.

SMILES strings stand for the structures.

Sequence of Mcl-1 protein (Q07820 whole entry): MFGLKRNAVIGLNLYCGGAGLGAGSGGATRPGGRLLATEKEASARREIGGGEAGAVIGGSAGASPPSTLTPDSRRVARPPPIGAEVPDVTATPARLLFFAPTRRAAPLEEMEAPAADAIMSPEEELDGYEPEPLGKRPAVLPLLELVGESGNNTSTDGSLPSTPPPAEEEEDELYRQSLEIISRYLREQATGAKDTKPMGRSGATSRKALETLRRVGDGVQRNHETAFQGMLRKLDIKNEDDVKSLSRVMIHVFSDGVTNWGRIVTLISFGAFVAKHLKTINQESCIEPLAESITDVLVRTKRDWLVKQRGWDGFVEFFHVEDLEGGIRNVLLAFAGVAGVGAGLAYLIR

By IC50 is commonly meant the midpoint of a concentration-inhibition curve. `COCCOCCOCCOc1ccc(-c2nccc(COc3ccccc3CC(Oc3ncnc4sc(-c5ccc(F)cc5)c(-c5ccc(OCCN6CCN(C)CC6)c(Cl)c5C)c34)C(=O)O)n2)cc1` [Example 33, (2R)-2-{[(5Sa)-5-{3-chloro-2-methyl-4-[2-(4-methylpiperazin-1-yl)ethoxy]phenyl}-6-(4-fluorophenyl)thieno[2,3-d]pyrimidin-4-yl]oxy}-3-(2-{[2-(4-{2-[2-(2-methoxyethoxy)ethoxy]ethoxy}phenyl)pyrimidin-4-yl]methoxy}phenyl)propanoic acid]: the IC50 in the test on H929 cells (setting [1]) came to 1.18 nM; at Mcl-1 protein it was 2.24e-08 M.
Turning to `Cc1c(-c2c(-c3ccc(F)cc3)sc3ncnc(O[C@H](Cc4ccccc4OCc4ccnc(-c5ccc(OCCN(C)C)cc5)n4)C(=O)O)c23)ccc(OCCN2CCN(C)CC2)c1Cl` [Example 34, (2R)-2-{[(5Sa)-5-{3-chloro-2-methyl-4-[2-(4-methylpiperazin-1-yl)ethoxy]phenyl}-6-(4-flurophenyl)thieno[2,3-d]pyrimidin-4-yl]oxy}-3-{2-[(2-{4-[2-(dimethylamino)ethoxy]phenyl}pyrimidin-4-yl)methoxy]phenyl}propanoic acid], the concentration for half-maximal inhibition (IC50) turned out to be 4.76 nM in the test with H929 cells (exposed 48 hours) and 7.1e-09 M at Mcl-1 protein.
For the compound `Cc1c(-c2c(-c3ccc(F)cc3)sc3ncnc(OC(Cc4ccccc4OCc4ccnc(-c5cccc(OCC6COC(C)(C)O6)c5)n4)C(=O)O)c23)ccc(OCCN2CCN(C)CC2)c1Cl` [Example 35, (2R) -2-{[(5Sa)-5-{3-chloro-2-methyl-4-[2-(4-methylpiperazin-1-yl)ethoxy]phenyl}-6-(4-fluorophenyl)thieno[2,3-d]pyrimidin-4-yl]oxy}-3-{2-[(2-{3-[(2,2-dimethyl-1,3-dioxolan-4-yl)methoxy]phenyl}pyrimidin-4-yl)methoxy]phenyl}propanoic acid], the IC50 in the test with H929 cells (setting [1]) was 4.76 nM; at Mcl-1 protein, 5.15e-09 M.
As for `Cc1c(-c2c(-c3ccc(F)cc3)sc3ncnc(OC(Cc4ccccc4OCc4ccnc(-c5cccc(COC(=O)NCCOCCOCCOCCO)c5)n4)C(=O)O)c23)ccc(OCCN2CCN(C)CC2)c1Cl` [Example 36, (2R)-2-{[(5Sa)-5-{3-chloro-2-methyl-4-[2-(4-methylpiperazin-1-yl)ethoxy]phenyl}-6-(4-fluorophenyl)thieno[2,3-d]pyrimidin-4-yl]oxy}-3-[2-({2-[3-(15-hydroxy-3-oxo-2,7,10,13-tetraoxa-4-azapentadec-1-yl)phenyl]pyrimidin-4-yl}methoxy)phenyl]propanoic acid], the IC50 in the test with H929 cells (setting [1]) worked out at 75.9 nM; at Mcl-1 protein, 4.65e-09 M.
With `Cc1c(-c2c(-c3ccc(F)cc3)sc3ncnc(OC(Cc4ccccc4OCc4ccnc(-c5cccc(COC(=O)N6CCC(N7CCCCC7)CC6)c5)n4)C(=O)O)c23)ccc(OCCN2CCN(C)CC2)c1Cl` [Example 37, (2R)-3-(2-{[2-(3-{[(1,4′-bipiperidin-1′-ylcarbonyl)oxy]methyl}phenyl)pyrimidin-4-yl]methoxy}phenyl)-2-{[(5Sa)-5-{3-chloro-2-methyl-4-[2-(4-methylpiperazin-1-yl)ethoxy]phenyl}-6-(4-fluorophenyl)thieno[2,3-d]pyrimidin-4-yl]oxy}propanoic acid], the results for the IC50 in the test with H929 cells (setting [1]) and at Mcl-1 protein were 20.5 nM and 6.3e-09 M, respectively.
Consider `Cc1c(-c2c(-c3ccc(F)cc3)sc3ncnc(OC(Cc4ccccc4OCc4ccnc(-c5cccc(OCCOCCOCCO)c5)n4)C(=O)O)c23)ccc(OCCN2CCN(C)CC2)c1Cl` [Example 38, (2R)-2-{[(5Sa)-5-{3-chloro-2-methyl-4-[2-(4-methylpiperazin-1-yl)ethoxy]phenyl}-6-(4-fluorophenyl)thieno[2,3-d]pyrimidin-4-yl]oxy}-3-(2-{[2-(3-{2-[2-(2-hydroxyethoxy)ethoxy]ethoxy}phenyl)pyrimidin-4-yl]methoxy}phenyl)propanoic acid], for which the IC50 is 2.76 nM in the test with H929 cells (setting [1]) and 2.8e-09 M at Mcl-1 protein.
On the same counts, the results for `Cc1c(-c2c(-c3ccc(F)cc3)sc3ncnc(OC(Cc4ccccc4OCc4ccnc(-c5cccc(OCCOCCO)c5)n4)C(=O)O)c23)ccc(OCCN2CCN(C)CC2)c1Cl` [Example 39, (2R)-2-{[(5Sa)-5-{3-chloro-2-methyl-4-[2-(4-methylpiperazin-1-yl)ethoxy]phenyl}-6-(4-fluorophenyl)thieno[2,3-d]pyrimidin-4-yl]oxy}-3-{2-[(2-{3-[2-(2-hydroxyethoxy)ethoxy]phenyl}pyrimidin-4-yl)methoxy]phenyl}propanoic acid] are 3.25 nM and 3.05e-09 M.
Take `COCCOCCOc1cccc(-c2nccc(COc3ccccc3CC(Oc3ncnc4sc(-c5ccc(F)cc5)c(-c5ccc(OCCN6CCN(C)CC6)c(Cl)c5C)c34)C(=O)O)n2)c1` [Example 40, (2R)-2-{[(5Sa)-5-{3-chloro-2-methyl-4-[2-(4-methylpiperazin-1-yl)ethoxy]phenyl}-6-(4-fluorophenyl)thieno[2,3-d]pyrimidin-4-yl]oxy}-3-{2-[(2-{3-[2-(2-methoxyethoxy)ethoxy]phenyl}pyrimidin-4-yl)methoxy]phenyl}propanoic acid]: the 50% inhibitory concentration (IC50) turned out to be 6.15 nM in the test with H929 cells (setting [1]) and 3.75e-09 M at Mcl-1 protein.
On the same counts, the results for `Cc1c(-c2c(-c3ccc(F)cc3)sc3ncnc(OC(Cc4ccccc4OCc4ccnc(-c5cccc(COC(=O)NCCN6CCN(C)CC6)c5)n4)C(=O)O)c23)ccc(OCCN2CCN(C)CC2)c1Cl` [Example 41, (2R)-2-{[(5Sa)-5-{3-chloro-2-methyl-4-[2-(4-methylpiperazin-1-yl)ethoxy]phenyl}-6-(4-fluorophenyl)thieno[2,3-d]pyrimidin-4-yl]oxy}-3-{2-[(2-{3-[({[2-(4-methylpiperazin-1-yl)ethyl]carbamoyl}oxy)methyl]phenyl}pyrimidin-4-yl)methoxy]phenyl}propanoic acid] are 90.8 nM and 3.45e-09 M.
For the compound `Cc1c(-c2c(-c3ccc(F)cc3)sc3ncnc(OC(Cc4ccccc4OCc4ccnc(-c5cccc(COC(=O)NCCN6CCOCC6)c5)n4)C(=O)O)c23)ccc(OCCN2CCN(C)CC2)c1Cl` [Example 42, (2R)-2-{[(5Sa)-5-{3-chloro-2-methyl-4-[2-(4-methylpiperazin-1-yl)ethoxy]phenyl}-6-(4-fluorophenyl)thieno[2,3-d]pyrimidin-4-yl]oxy}-3-{2-[(2-{3-[({[2-(morpholin-4-yl)ethyl]carbamoyl}oxy)methyl]phenyl}pyrimidin-4-yl)methoxy]phenyl}propanoic acid], the 50% inhibitory concentration (IC50) was 44.5 nM in the test on H929 cells (setting [1]) and 4.45e-09 M on Mcl-1 protein.
On the same counts, the results for `Cc1c(-c2c(-c3ccc(F)cc3)sc3ncnc(OC(Cc4ccccc4OCc4ccnc(-c5cccc(COC(=O)NCCN(C)C)c5)n4)C(=O)O)c23)ccc(OCCN2CCN(C)CC2)c1Cl` [Example 43, (2R)-2-{[(5Sa)-5-{3-chloro-2-methyl-4-[2-(4-methylpiperazin-1-yl)ethoxy]phenyl}-6-(4-fluorophenyl)thieno[2,3-d]pyrimidin-4-yl]oxy}-3-{2-[(2-{3-[({[2-(dimethylamino)ethyl]carbamoyl}oxy)methyl]phenyl}pyrimidin-4-yl)methoxy]phenyl}propanoic acid] are 31.1 nM and 4.55e-09 M.
In the case of `Cc1c(-c2c(-c3ccc(F)cc3)sc3ncnc(OC(Cc4ccccc4OCc4ccnc(-c5cccc(COC(=O)NCCN6CCCC6)c5)n4)C(=O)O)c23)ccc(OCCN2CCN(C)CC2)c1Cl` [Example 44, (2R)-2-{[(5Sa)-5-{3-chloro-2-methyl-4-[2-(4-methylpiperazin-1-yl)ethoxy]phenyl}-6-(4-fluorophenyl)thieno[2,3-d]pyrimidin-4-yl]oxy}-3-{2-[(2-{3-[({[2-(pyrrolidin-1-yl)ethyl]carbamoyl}oxy)methyl]phenyl}pyrimidin-4-yl)methoxy]phenyl}propanoic acid], the figures for the IC50 with H929 cells (setting [1]) and on Mcl-1 protein were 28.7 nM and 3.7e-09 M, respectively.
On the same counts, the results for `COCCN(CCOC)C(=O)OCc1cccc(-c2nccc(COc3ccccc3CC(Oc3ncnc4sc(-c5ccc(F)cc5)c(-c5ccc(OCCN6CCN(C)CC6)c(Cl)c5C)c34)C(=O)O)n2)c1` [Example 45, (2R)-3-[2-({2-[3-({[bis(2-methoxyethyl)carbamoyl]oxy}methyl)phenyl]pyrimidin-4-yl}methoxy)phenyl]-2-{[(5Sa)-5-{3-chloro-2-methyl-4-[2-(4-methylpiperazin-1-yl)ethoxy]phenyl}-6-(4-fluorophenyl)thieno[2,3-d]pyrimidin-4-yl]oxy}propanoic acid] are 4.58 nM and 3.2e-09 M.
On the same counts, the results for `Cc1c(-c2c(-c3ccc(F)cc3)sc3ncnc(OC(Cc4ccccc4OCc4ccnc(-c5cccc(COC(=O)N6CCOCCOCCOCCOCCOCC6)c5)n4)C(=O)O)c23)ccc(OCCN2CCN(C)CC2)c1Cl` [Example 46, (2R)-2-{[(5Sa)-5-{3-chloro-2-methyl-4-[2-(4-methylpiperazin-1-yl)ethoxy]phenyl}-6-(4-fluorophenyl)thieno[2,3-d]pyrimidin-4-yl]oxy}-3-(2-{[2-(3-{[(1,4,7,10,13-pentaoxa-16-azacyclooctadecan-16-ylcarbonyl)oxy]methyl}phenyl)pyrimidin-4-yl]methoxy}phenyl)propanoic acid] are 23.4 nM and 2.55e-09 M.
For the compound `Cc1c(-c2c(-c3ccc(F)cc3)sc3ncnc(OC(Cc4ccccc4OCc4ccnc(-c5cccc(OCC(O)CO)c5)n4)C(=O)O)c23)ccc(OCCN2CCN(C)CC2)c1Cl` [Example 47, (2R)-2-{[(5Sa)-5-{3-chloro-2-methyl-4-[2-(4-methylpiperazin-1-yl)ethoxy]phenyl}-6-(4-fluorophenyl)thieno[2,3-d]pyrimidin-4-yl]oxy}-3-[2-({2-[3-(2,3-dihydroxypropoxy)phenyl]pyrimidin-4-yl}methoxy)phenyl]propanoic acid], the half-inhibitory concentration (IC50) amounted to 18.2 nM in the test with H929 cells (setting [1]) and 4.05e-09 M at Mcl-1 protein.
